Laboratory results as given in patent US8410163B2, “Substituted 4-amino-5-benzoyl-2-(phenylamino)thiophene-3-carbonitriles and substituted 4-amino-5-benzoyl-2-(phenylamino)thiophene-3-carboxamides as tubulin polymerization inhibitors” (Telik, Inc., priority 2009, dated 2013).

Legend:
Format in all cases: cell-based
[1] = test system: A549 (human lung adenocarcinoma); assay: Cytotoxicity assay (CellTiter-Glo), A549; conditions: 72 h, A549 cells, three days culture, rounded to 1 significant figure
Description: (§1) The cell lines A549 (human lung adenocarcinoma), OVCAR-3 (human ovarian carcinoma), HL60 (human promyelocytic leukemia), DLD1 (human colon adenocarcinoma) and HCT116 (human colon carcinoma) were obtained from the American Type Culture Collection, Manassas, Va., U.S.A. All products were used in accordance with manufacturer's directions. The histone phosphorylation (p-H3) assay was conducted in duplicate and the cytotoxicity assays were conducted in triplicate, in each case with solvent control.
(§2) Log-phase cells were trypsinized, collected by centrifugation, and resuspended in a small volume of fresh medium, and the density of viable cells was determined following Trypan Blue staining. Cells were diluted in fresh media, the test compounds (concentrations between 0.1 μM and 200 μM, dissolved in DMSO, 50 μL) added immediately after dilution to achieve a final DMSO concentration of 0.5%, then the suspensions added at 150 μL/well to 96-well plates, and incubated overnight to allow attachment in the case of adherent cells. The cells were cultured for three days (about three doubling times). The cells were then collected by centrifugation, and 100 μL of the culture supernatant was replaced by the CellTiter-Glo reagent. After incubation for 15 minutes at room temperature, the plate was read with a luminometer. […] The table gives cytotoxicity IC50s in μM, rounded to 1 significant figure.

[2] = test system: HL60 (human promyelocytic leukemia); assay: Cytotoxicity assay (CellTiter-Glo), HL-60; conditions: 72 h, HL-60 cells, three days culture, rounded to 1 significant figure
Description: as §1, §2

[3] = test system: OVCAR-3 (human ovarian carcinoma); assay: Cytotoxicity assay (CellTiter-Glo), OVCAR-3; conditions: 72 h, OVCAR-3 cells, three days culture, rounded to 1 significant figure
Description: as §1, §2

[4] = test system: HCT116 (human colon carcinoma); assay: Cytotoxicity assay (CellTiter-Glo), HCT116; conditions: HCT-116, 72 h, HCT116 cells, three days culture, rounded to 1 significant figure
Description: as §1, §2

## COc1ccc(Nc2sc(C(=O)c3ccc(Br)cc3)c(N)c2C#N)cc1 [Compound 3A]
[1]
  IC50: 20 nM

## CCN(CC)c1ccc(C(=O)c2sc(Nc3ccc(OC)c(OC)c3)c(C#N)c2N)cc1 [Compound 11A]
[1]
  IC50: 50 nM

## CCOc1ccc(Nc2sc(C(=O)c3ccc(Cl)cc3)c(N)c2C(N)=O)cc1 [Compound 13A]
[1]
  IC50: 60 nM
[2]
  IC50: 30 nM

## COc1ccc(C(=O)c2sc(Nc3ccc4c(c3)OCO4)c(C#N)c2N)cc1OC [Compound 16A]
[1]
  IC50: 100 nM
[2]
  IC50: 60 nM

## CCOc1ccc(Nc2sc(C(=O)c3ccc(OC)cc3)c(N)c2C#N)cc1 [Compound 17A]
[1]
  IC50: 100 nM
[2]
  IC50: 100 nM

## Cc1ccc(C(=O)c2sc(Nc3ccc4c(c3)OCO4)c(C#N)c2N)cc1 [Compound 19A]
[1]
  IC50: 200 nM

## N#Cc1ccc(C(=O)c2sc(Nc3ccc4c(c3)OCO4)c(C#N)c2N)cc1 [Compound 20A]
[1]
  IC50: 200 nM

## COc1ccc(Nc2sc(C(=O)c3ccc(OC)cc3OC)c(N)c2C#N)c(OC)c1 [Compound 22A]
[1]
  IC50: 200 nM

## N#Cc1c(Nc2ccc3c(c2)OCO3)sc(C(=O)c2ccc(Br)cc2)c1N [Compound 23A]
[1]
  IC50: 300 nM

## N#Cc1c(Nc2ccc3c(c2)OCO3)sc(C(=O)c2ccc(Cl)cc2)c1N [Compound 24A]
[1]
  IC50: 300 nM
[2]
  IC50: 80 nM

## COc1cccc(C(=O)c2sc(Nc3ccc4c(c3)OCO4)c(C#N)c2N)c1 [Compound 25A]
[1]
  IC50: 500 nM

## CCN(CC)c1ccc(C(=O)c2sc(Nc3ccc(OC)cc3OC)c(C#N)c2N)cc1 [Compound 26A]
[1]
  IC50: 500 nM

## NC(=O)c1c(Nc2ccc3c(c2)OCO3)sc(C(=O)c2ccc(Cl)cc2)c1N [Compound 27A, 4-amino-2-(1,3-benzodioxol-5-ylamino)-5-(4-chlorobenzoyl)thiophene-3-carboxamide]
[1]
  IC50: 600 nM
[3]
  IC50: 300 nM
[2]
  IC50: 200 nM
[4]
  IC50: 600 nM

## COc1ccc(C(=O)c2sc(Nc3ccc(OC)c(OC)c3)c(C#N)c2N)cc1 [Compound 28A]
[1]
  IC50: 700 nM

## CC(C)c1ccc(Nc2sc(C(=O)c3ccc(Cl)cc3)c(N)c2C#N)cc1 [Compound 29A]
[1]
  IC50: 800 nM

## COC(=O)c1ccc(Nc2sc(C(=O)c3ccc(Cl)cc3)c(N)c2C#N)cc1 [Compound 30A]
[1]
  IC50: 1000 nM

## N#Cc1c(Nc2ccc(C(F)(F)F)cc2)sc(C(=O)c2ccc(Cl)cc2)c1N [Compound 31A]
[1]
  IC50: 1000 nM

## COc1ccc(C(=O)c2sc(Nc3ccc(OC)cc3OC)c(C#N)c2N)cc1 [Compound 32A]
[1]
  IC50: 1000 nM

## N#Cc1c(Nc2ccc3c(c2)OCO3)sc(C(=O)c2ccc(F)cc2)c1N [Compound 33A]
[1]
  IC50: 1000 nM

## N#Cc1cccc(C(=O)c2sc(Nc3ccc4c(c3)OCO4)c(C#N)c2N)c1 [Compound 34A]
[1]
  IC50: 1000 nM

## N#Cc1c(Nc2ccc3c(c2)OCO3)sc(C(=O)c2cccc(Cl)c2)c1N [Compound 35A]
[1]
  IC50: 1000 nM

## CN(C)CCOc1ccc(Nc2sc(C(=O)c3ccc(Cl)cc3)c(N)c2C#N)cc1 [Compound 36A]
[1]
  IC50: 1000 nM

## N#Cc1c(Nc2ccc([N+](=O)[O-])cc2)sc(C(=O)c2ccc(Cl)cc2)c1N [Compound 37A]
[1]
  IC50: 2000 nM

## N#Cc1c(Nc2ccc(F)cc2)sc(C(=O)c2ccc(Cl)cc2)c1N [Compound 38A]
[1]
  IC50: 2000 nM

## COc1ccc(Nc2sc(C(=O)c3ccc(OCCN(C)C)cc3)c(N)c2C#N)cc1 [Compound 39A]
[1]
  IC50: 2000 nM

## N#Cc1c(Nc2ccc3c(c2)OCO3)sc(C(=O)c2cccc(Br)c2)c1N [Compound 41A]
[1]
  IC50: 2000 nM
